This is an account of results in patent publication US20090181990A1 (priority 2007, published 2009).

Holding throughout (format): physicochemical
Data set [1] can be described thus: Amorphous pemetrexed disodium stability study (HPLC purity, moisture content, XRD on storage). As to conditions: for HPLC: in % (unit assumed). More on the design: key to HPLC: % chromatographic purity by HPLC area normalisation. Here is the method:
(§1) X-ray diffraction data were acquired using a PANalyticalX′pert PRO X-ray diffractometer model.
(§2) System description: Kα1=1.54060 A^0, voltage 45 kV, current 40 mA, Xray source: Cu.
(§3) Experiment parameters: pattern measured between 2θ=4° and 2θ=40° with 0.05° increments; count time was 0.5 second per increment.
(§4) The water content measurements were carried out using a METTLER TOLEDO Model: DL31Karl Fischer Titrator according to standard procedures.
(§5) Purity by HPLC was performed by Waters 2690 Seperations module.system.
The samples were packed in double seal poly bags followed by Aluminium bag sealed under nitrogen with oxygen trapper and stored • at 2-8° C. for a period of six months • 25° C./60% relative humidity (RH) for a period of six months.
The purity of the sample was checked by HPLC and XRD was recorded for the samples stored under these conditions after 2 months and 6 months.
Inject 20 μl of test solution and calculate the chromatographic purity by area normalisation method.

Data set [2] in a line: Bulk and tapped density (tap density tester, USP). An excerpt: As referred to herein the term “bulk density” is the weight of the sample divided by its non packed volume and the term “tapped density” is the weight of the sample divided by its packed volume. The units of bulk density are grams (gm) per cubic centimeter (cc) or grams (gm) per milliliter (ml). A powder having low bulk density will be lightweight, fluffy and have greater surface area. A powder with high density will be much more compact and dense, exist as harder particles and will result in a more flowable product compared to powder with low bulk density. Bulk and tapped densities were measured using Electrolab ETD-1020 tap density tester (USP).

The nature of data set [3]: Material kept outside at room temperature for 15 hrs (XRD, water content, HPLC purity). Conditions: after room temperature. The procedure: as §1, §4, §5
The material was kept outside at room temperature for 15 hrs.

A short description of data set [4]: Conservation of amorphous form under various storage conditions (XRD, moisture content). Here is the method:
as §1, §2, §3, §4

Where [5] appears, read: 40° C./75% relative humidity for 7 days, double polythene bags in a fiber drum.
Setting [6] is: 80° C. for 7 days, open petriplate.
The mark [7] stands for this setting: Room temperature for 24 hours, open petriplate.
The mark [8] stands for this setting: Room temperature for 40 days, double polythene bags.
[9] abbreviates: 2-8° C. or 25° C./60% relative humidity, six months.

The structures appear in SMILES notation.

Regarding `Nc1nc2[nH]cc(CCc3ccc(C(=O)NC(CCC(=O)[O-])C(=O)[O-])cc3)c2c(=O)[nH]1.[Na+].[Na+]` (stereo not shown) [Amorphous Form of Pemetrexed Disodium, with Moisture Content] [listing 1 of 2 here], the “% Moisture Content” value in data set [1] (2-8° C., 2 Months) came out at 8.96%; in data set [1] (2-8° C., 6 Months) it was 9.39%; in data set [1] (2-8° C., Initial), 9.04%; in data set [1] (25° C. RH 60%, 2 Months), 8.39%; in data set [1] (25° C. RH 60%, 6 Months) it was 8.85%; in data set [1] (25° C. RH 60%, Initial), 9.04%. For the same compound, the HPLC is 99.72 in data set [1] (2-8° C., 2 Months); 99.62 in data set [1] (2-8° C., 6 Months); 99.68 in data set [1] (2-8° C., Initial); 99.72 in data set [1] (25° C. RH 60%, 2 Months); 99.67 in data set [1] (25° C. RH 60%, 6 Months); 99.68 in data set [1] (25° C. RH 60%, Initial). The XRD result in data set [1] (2-8° C., 6 Months) is on record as “Amorphous”; in data set [1] (2-8° C., Initial), “Amorphous”; in data set [1] (25° C. RH 60%, 6 Months), “Amorphous”; in data set [1] (25° C. RH 60%, Initial), “Amorphous”.

Consider `Nc1nc2[nH]cc(CCc3ccc(C(=O)NC(CCC(=O)[O-])C(=O)[O-])cc3)c2c(=O)[nH]1.[Na+].[Na+]` (stereo not shown) [Amorphous Form of Pemetrexed Disodium, with Moisture Content] [listing 2 of 2 here], for which the “% Moisture Content” value is 11.68% in data set [1] (2-8° C., 2 Months); 12.31% in data set [1] (2-8° C., 6 Months); 15.92% in data set [1] (2-8° C., Initial); 10.26% in data set [1] (25° C. RH 60%, 2 Months); 11.45% in data set [1] (25° C. RH 60%, 6 Months); 15.92% in data set [1] (25° C. RH 60%, Initial). In data set [1] (2-8° C., 6 Months), the XRD result is listed as “Amorphous”. The HPLC in data set [1] (2-8° C., 6 Months) worked out at 99.59; in data set [1] (2-8° C., Initial), 99.66; in data set [1] (25° C. RH 60%, 6 Months), 99.63; in data set [1] (25° C. RH 60%, Initial) it was 99.66.

In data set [2], `Nc1nc2[nH]cc(CCc3ccc(C(=O)NC(CCC(=O)[O-])C(=O)[O-])cc3)c2c(=O)[nH]1.[Na+].[Na+]` (stereo not shown) [Example 2, amorphous pemetrexed disodium] returned a Bulk density of 0.226 gm/ml and a Tapped density of 0.369 gm/ml.

With `Nc1nc2[nH]cc(CCc3ccc(C(=O)NC(CCC(=O)[O-])C(=O)[O-])cc3)c2c(=O)[nH]1.[Na+].[Na+]` (stereo not shown) [Example 3, amorphous pemetrexed disodium], in data set [3], the HPLC purity was 99.66%, the Water content turned out to be 16% and the “X-ray diffraction (form)” value is listed as “amorphous form is retained”.

Regarding `Nc1nc2[nH]cc(CCc3ccc(C(=O)NC(CCC(=O)[O-])C(=O)[O-])cc3)c2c(=O)[nH]1.[Na+].[Na+]` (stereo not shown) [amorphous form of pemetrexed disodium, pemetrexed disodium], the “% Moisture Content after storage” value in data set [4] (setting [5]) is recorded as 18.27%; in data set [4] (setting [6]) it was 6.24%; in data set [4] (setting [7]), 20.03%; in data set [4] (setting [8]), 18.56. For the same compound, the XRD result in data set [4] (setting [5]), in data set [4] (setting [6]), in data set [4] (setting [7]) and in data set [4] (setting [8]) was “Amorphous form” throughout. The “% Moisture Content Initial” value in data set [4] (before storage) is on record as 5.48%. In data set [1] (setting [9]), the “amorphous form after storage (XRD)” value is given as “amorphous form is retained”. Moreover, the “impurity formation / chemical purity after storage (HPLC)” value in data set [1] (setting [9]) is “no significant formation of impurities”.
